According to publication PMC9255384 (Journal of medicinal chemistry, 2021):

Test system: Caco-2
Assay: Monolayer Caco-2 permeability experiment
Format: in vitro ADME

SMILES: CSc1nc(-c2cccc(NC(=O)c3c(F)ccc(O)c3CN3C(=O)c4ccccc4C3=O)c2)c(-c2ccnc(NC(C)=O)c2)[nH]1 [Compound 2c, N-(3-(5-(2-acetamidopyridin-4-yl)-2-(methylthio)-1H-imidazol-4-yl)phenyl)-2-((1,3-dioxoisoindolin-2-yl)methyl)-6-fluoro-3-hydroxybenzamide]
- cellular permeability (Caco-2): limited cellular permeability

SMILES: C=CC(=O)Nc1ccc(OC)c(Nc2cc(-c3[nH]c(SC)nc3-c3cccc(NC(=O)c4c(F)ccc(O)c4CN4C(=O)c5ccccc5C4=O)c3)ccn2)c1 [Compound 1, N-(3-(5-(2-((5-acrylamido-2-methoxyphenyl)amino)pyridin-4-yl)-2-(methylthio)-1H-imidazol-4-yl)phenyl)-2-((1,3-dioxoisoindolin-2-yl)methyl)-6-fluoro-3-hydroxybenzamide]
- cellular permeability (Caco-2): limited cellular permeability
